# According to patent US5541174A, “Analgesic method” (priority 1995, dated 1996):
# How the values were obtained:
# [1] = tested on: acetic acid induced writhing in mice; assay: Acetic acid-induced writhing test; assay type: in vivo, ICR male mice; conditions: for activity versus other copper complexes and parent ligand: Table VI
# Experimental: 1. Acetic acid-induced writhing test as described in Koster et al., "Acetic Acid for Analgesic Screening", Fed. Proc. 18, 412 (1959), incorporated by reference herein; and
# Groups of 10 ICR male mice (Taisho Pharmaceutical Co. Research Center) were used to study each dose of every compound. Ligands or complexes were administered orally or subcutaneously in 0.1 ml of vehicle per 10 g of body weight 30 minutes before the intrapertioneal injection of 0.1 ml of 0.7% acetic acid solution per 10 g of body weight. Number of writhes were counted for each mouse during a period of 10 to 20 min after acetic acid injection. Inhibitory percent was calculated by comparison with the number of writhes in the non-treated control, vehicle-treated, and acetic acid-injected group. The ED50 value and 95% confidence limits were calculated from the inhibitory percent by the method of Litchfield and Wilcoxon.
# [2] = tested on: adjuvant-induced arthritic pain in rats; assay: Adjuvant-induced arthritic pain; assay type: in vivo, male Sprague-Dawley rats
# Description: 2. Adjuvant-induced arthritic pain as described in:
# S. KUZNA, et al., Measurement of Arthritic Pain and Effects of Analgesics in the Adjuvant-Treated Rat, Chem. Pharm. Bull. 23, 1184-1191 (1975);
# C. A. WINTER, et al., Analgesic Activity of Diflunisal in Rats with Hyperalygesia Induced by Freud's Adjuvant, J. Pharmacol. Exp. Ther. 211, 678-685 (1979; and
# M. E. ROSENTHALE, et al., Adjuvant Arthritis:Immuno-Pathological and Hyperalgesic Features, Fed. Proced. 41, 2577-2582 (1982),
# incorporated by reference herein.
# Groups of 5-6 male Sprague-Dawley rats (Taisho Pharmaceutical Co. Research Center) weighing 140 to 160 g at the time of Mycobacterium butyricum (adjuvant, Difco Laboratories, Detroit, Mich.) injection were used to study each compound. Rats were injected intradermally at the base of the tail with 0.1 ml of a parafin oil suspension of 0.5 mg of heat-killed mycobacterium. Fifteen to 19 days later, drugs were administered orally or subcutaneously in 0.5 ml of vehicle per 100 g of body weight to rats showing the nociceptive reaction, vocalization following a gentle flexion of the tarsal-tibial joint of the inflamed hind-paw. Vocalization responses were measured every hour for 5 hours. […] The ED50 value and 95% confidence limits were calculated from the positive rate for non-treated controls, vehicle-treated adjuvant arthritic rats, by the method of Litchfield and Wilcoxin.
# All drugs were suspended with 5% gum arabic in saline solution or wetted with enough propylene glycol to give a final concentration of 4% propylene glycol and the wetted solid suspended in 1.4% polyvinyl alcohol in saline.
# [3] = oral, 5% gum arabic, 0.20 mmol/kg
# [4] = oral, 5% gum arabic, 0.40 mmol/kg
# [5] = oral, 5% gum arabic, 0.42 mmol/kg
# [6] = oral, 5% gum arabic, 0.33 mmol/kg
# [7] = oral, 5% gum arabic, 0.30 mmol/kg
# [8] = oral, 5% gum arabic, 0.60 mmol/kg
compound,measurement,setting,value
"CC(C)c1cc(C(=O)[O-])c(O)c(C(C)C)c1.CC(C)c1cc(C(=O)[O-])c(O)c(C(C)C)c1.[Cu+2] [Cu(II)(3,5-dips)2]",ED50,"[1]; oral, 5% gum arabic in saline",0.40 mmol/kg
same,analgesic effectiveness versus parent ligand,"[1]; oral, 5% gum arabic in saline",slightly less effective than its parent ligand
same,% Inhibition,[1]; [3],35%
same,% Inhibition,[1]; [4],48%
same,% Inhibition,"[1]; oral, 5% gum arabic, 0.80 mmol/kg",66%
same,analgesic effectiveness versus parent ligand,"[1]; oral, PG-PVA",only as effective as its parent ligand
same,ED50,"[1]; oral, PG-PVA in saline",0.43 mmol/kg
same,% Inhibition,"[1]; oral, PG-PVA, 0.20 mmol/kg",26%
same,% Inhibition,"[1]; oral, PG-PVA, 0.40 mmol/kg",56%
same,% Inhibition,"[1]; oral, PG-PVA, 0.79 mmol/kg",62%
same,ED50,"[1]; s.c., PG-PVA in saline",0.20 mmol/kg
same,% Inhibition,"[1]; s.c., PG-PVA, 0.10 mmol/kg",27%
same,% Inhibition,"[1]; s.c., PG-PVA, 0.20 mmol/kg",45%
same,% Inhibition,"[1]; s.c., PG-PVA, 0.40 mmol/kg",74%
same,analgesic effectiveness versus parent ligand,"[2]; oral, 5% gum arabic",essentially equipotent with its ligand
same,ED50,"[2]; oral, 5% gum arabic in saline",0.43 mmol/kg
same,% Inhibition,"[2]; oral, 5% gum arabic, 0.10 mmol/kg",7%
same,% Inhibition,[2]; [3],20%
same,% Inhibition,[2]; [4],47%
same,analgesic effectiveness versus parent ligand,"[2]; oral, PG-PVA",more effective than its parent ligand
same,ED50,"[2]; oral, PG-PVA in saline",> 0.40 mmol/kg
same,% Inhibition,"[2]; oral, PG-PVA, 0.40 mmol/kg",40%
same,ED50,"[2]; s.c., PG-PVA in saline",0.12 mmol/kg
same,% Inhibition,"[2]; s.c., PG-PVA, 0.05 mmol/kg",23%
same,% Inhibition,"[2]; s.c., PG-PVA, 0.10 mmol/kg",37%
same,% Inhibition,"[2]; s.c., PG-PVA, 0.20 mmol/kg",70%
C[C@H](N)C(=O)[O-].C[C@H](N)C(=O)[O-].[Cu+2] [Cu(II)(L-alaninate)2],activity versus other copper complexes and parent ligand,[1],less active than the other copper complexes
same,ED50,"[1]; oral, 5% gum arabic in saline",0.92 mmol/kg
same,% Inhibition,[1]; [5],22%
same,% Inhibition,"[1]; oral, 5% gum arabic, 0.83 mmol/kg",48%
same,% Inhibition,"[1]; oral, 5% gum arabic, 1.67 mmol/kg",71%
same,ED50,"[2]; oral, 5% gum arabic in saline",> 0.42 mmol/kg
same,% Inhibition,[2]; [5],0%
N[C@@H](CSSC[C@H](N)C(=O)[O-])C(=O)[O-].[Cu+2] [Cu(II)(L-cystinate)],activity versus other copper complexes and parent ligand,[1],less active than the other copper complexes
same,ED50,"[1]; oral, 5% gum arabic in saline",> 0.33 mmol/kg
same,% Inhibition,[1]; [6],35%
same,ED50,"[2]; oral, 5% gum arabic in saline",> 0.33 mmol/kg
same,% Inhibition,[2]; [6],0%
"Nc1ccccc1C(=O)[O-].Nc1ccccc1C(=O)[O-].[Cu+2] [Cu(II)(anthranilate)2, Bisanthranilato(O,N)copper(II)]",ED50,"[1]; oral, 5% gum arabic in saline",0.50 mmol/kg
same,analgesic effectiveness versus parent ligand,"[1]; oral, 5% gum arabic in saline",more effective than their parent ligands
same,% Inhibition,"[1]; oral, 5% gum arabic, 0.15 mmol/kg",25%
same,% Inhibition,[1]; [7],47%
same,% Inhibition,[1]; [8],50%
same,analgesic effectiveness versus parent ligand,"[1]; oral, PG-PVA",more effective than their parent ligands
same,ED50,"[1]; oral, PG-PVA in saline",> 0.89 mmol/kg
same,ED50,"[1]; s.c., PG-PVA in saline",0.22 mmol/kg
same,% Inhibition,"[1]; s.c., PG-PVA, 0.07 mmol/kg",30%
same,% Inhibition,"[1]; s.c., PG-PVA, 0.15 mmol/kg",42%
same,% Inhibition,"[1]; s.c., PG-PVA, 0.30 mmol/kg",57%
same,analgesic effectiveness versus parent ligand,"[2]; oral, 5% gum arabic",less effective than its parent ligand
same,ED50,"[2]; oral, 5% gum arabic in saline",> 0.60 mmol/kg
same,% Inhibition,[2]; [7],0%
same,% Inhibition,[2]; [8],10%
same,analgesic effectiveness versus parent ligand,"[2]; oral, PG-PVA",less effective than its parent ligand
same,ED50,"[2]; oral, PG-PVA in saline",> 0.60 mmol/kg
same,% Inhibition,"[2]; oral, PG-PVA, 0.60 mmol/kg",17%
same,ED50,"[2]; s.c., PG-PVA in saline",0.19 mmol/kg
same,% Inhibition,"[2]; s.c., PG-PVA, 0.07 mmol/kg",20%
same,% Inhibition,"[2]; s.c., PG-PVA, 0.15 mmol/kg",43%
same,% Inhibition,"[2]; s.c., PG-PVA, 0.30 mmol/kg",63%
